We go through 3 compounds from patent US9731052B2, “Methods for stepwise deposition of silk fibroin coatings” (TRUSTEES OF TUFTS COLLEGE, priority 2005, dated 2017).

Data set [1] in a line: Real-time adsorption of model compounds monitored by RQCM. Format: physicochemical. The settings on record: in situ RQCM; for adsorption (saturation) that took place within the first 2 min: silk pre-coated gold electrode. From the text: (§1) This process was repeated according to the designated architectures in which the outmost layer was always silk layer. In this work, two different loading modalities were used in the release study for each compound, each with two different rinsing methods. UV-Vis absorbance spectra and a research quartz crystal microbalance (RQCM) were used for verifying the deposition.
The real-time adsorption of model compounds on silk pre-coated gold electrode surface was monitored using research quartz crystal microbalance (RQCM).

Data set [2] in a line: Compound release from multilayer silk coatings on glass slides in PBS. The data set is classed as physicochemical. Particulars: room temperature.
From the text: as §1
The compound release from the multilayer coatings on glass microscope slides (25×75 mm on both sides) was investigated by incubating the slides in 5 ml PBS buffer solutions at room temperature with gentle shaking (60 rpm). At preset time intervals, 2 ml supernatant was sampled and 2 ml fresh PBS solution was then added to replenish the sample that was removed in order to maintain a constant volume. The supernatant was analyzed for the amount of released model compound using UV-vis spectroscopy for optical densities at a specific wavelength for each compound (562 nm for Rhodamine B, 609 nm for Even Blue, and 358 nm for Azoalbumin) and compared to a standard curve generated for each compound. The amount of released compound in each sample was summed with the amounts at each previous time point and divided by the total amount to obtain cumulative release value. Experiments were run in triplicates (n=3). Data in the graphs represent the average±standard deviation.

Consider `CCN(CC)c1ccc2c(-c3ccccc3C(=O)O)c3ccc(=[N+](CC)CC)cc-3oc2c1` [Rhodamine B], for which, in data set [1], the “adsorption on silk coating, compared with Even Blue” value was “higher adsorption” and the “adsorption (saturation) that took place within the first 2 min” value is listed as approximately 92%.

As to “Azoalbumin: model molecule representing therapeutically relevant proteins”, in data set [1], the “adsorption (saturation) that took place within the first 2 min” value was approximately 82%.

`Cc1cc(-c2ccc(/N=N/c3ccc4c(S(=O)(=O)[O-])cc(S(=O)(=O)[O-])c(N)c4c3O)c(C)c2)ccc1/N=N/c1ccc2c(S(=O)(=O)[O-])cc(S(=O)(=O)[O-])c(N)c2c1O.[Na+].[Na+].[Na+].[Na+]` [Even Blue]: in data set [1], the “adsorption (saturation) that took place within the first 2 min” value was approximately 92%. In addition, the “initial burst, compared with Rhodamine B” value in data set [2] is on record as “no noticeable difference”.
